Results as given in US8580794B2 (AbbVie Inc., priority 2009, dated 2013).
pKi: −log10 of the molar value.

The molecules below were run against GST-Bc1-2 (Homo sapiens, UniProt P10415) (assay: Time Resolved-Fluorescence Resonance Energy Transfer (TR-FRET) Bcl-2 binding assay with F-Bak peptide probe). Conditions: GST-Bcl-2 1 nM, F-Bak probe 100 nM, Tb-anti-GST 1 nM; '<' = below limit of detection; read-out: TR-FRET Bcl-2 Binding Ki.
Sequence of GST-Bc1-2 (P10415 whole entry): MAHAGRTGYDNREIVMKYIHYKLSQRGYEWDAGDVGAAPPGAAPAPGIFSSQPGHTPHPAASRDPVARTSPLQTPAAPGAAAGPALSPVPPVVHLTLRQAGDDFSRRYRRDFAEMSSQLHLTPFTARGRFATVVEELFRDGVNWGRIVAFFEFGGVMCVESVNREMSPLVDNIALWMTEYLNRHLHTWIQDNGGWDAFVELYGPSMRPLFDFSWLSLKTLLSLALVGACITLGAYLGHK

Going from `COCCNc1ccc(S(=O)(=O)NC(=O)c2ccc(N3CCN(CC4=C(c5ccc(Cl)cc5)CC(C)(C)CC4)CC3)cc2Oc2ccc3[nH]ccc3c2)cc1[N+](=O)[O-]` [Example 20, 4-(4-{[2-(4-chlorophenyl)-4,4-dimethylcyclohex-1-en-1-yl]methyl}piperazin-1-yl)-2-(1H-indol-5-yloxy)-N-({4-[(2-methoxyethyl)amino]-3-nitrophenyl}sulfonyl)benzamide] to `CC1(C)CCC(CN2CCN(c3ccc(C(=O)NS(=O)(=O)c4ccc(NCCC#N)c([N+](=O)[O-])c4)c(Oc4cnc5[nH]ccc5c4)c3)CC2)=C(c2ccc(Cl)cc2)C1` [Example 62, 4-(4-{[2-(4-chlorophenyl)-4,4-dimethylcyclohex-1-en-1-yl]methyl}piperazin-1-yl)-N-({4-[(2-cyanoethyl)amino]-3-nitrophenyl}sulfonyl)-2-(1H-pyrrolo[2,3-b]pyridin-5-yloxy)benzamide], the pKi rises from 9.74 to > 11.00.

`CC(=O)N1CCOC(CNc2ccc(S(=O)(=O)NC(=O)c3ccc(N4CCN(CC5=C(c6ccc(Cl)cc6)CC(C)(C)CC5)CC4)cc3Oc3cnc4[nH]ccc4c3)cc2[N+](=O)[O-])C1` (centres unmarked) [Example 136, N-[(4-{[(4-acetylmorpholin-2-yl)methyl]amino}-3-nitrophenyl)sulfonyl]-4-(4-{[2-(4-chlorophenyl)-4,4-dimethylcyclohex-1-en-1-yl]methyl}piperazin-1-yl)-2-(1H-pyrrolo[2,3-b]pyridin-5-yloxy)benzamide] and `CC1(C)CCC(CN2CCN(c3ccc(C(=O)NS(=O)(=O)c4ccc(NC[C@H]5CN(C6CC6)CCO5)c([N+](=O)[O-])c4)c(Oc4cnc5[nH]ccc5c4)c3)CC2)=C(c2ccc(Cl)cc2)C1` [Example 327, 4-(4-{[2-(4-chlorophenyl)-4,4-dimethylcyclohex-1-en-1-yl]methyl}piperazin-1-yl)-N-{[4-({[(2S)-4-cyclopropylmorpholin-2-yl]methyl}amino)-3-nitrophenyl]sulfonyl}-2-(1H-pyrrolo[2,3-b]pyridin-5-yloxy)benzamide] cannot be ordered by pKi: > 11.00 for the first, > 11.00 for the second.

Going from `COCCOCCN1CCOC(CNc2ccc(S(=O)(=O)NC(=O)c3ccc(N4CCN(CC5=C(c6ccc(Cl)cc6)CC(C)(C)CC5)CC4)cc3Oc3cnc4[nH]ccc4c3)cc2[N+](=O)[O-])C1` (centres unmarked) [Example 213, 4-(4-{[2-(4-chlorophenyl)-4,4-dimethylcyclohex-1-en-1-yl]methyl}piperazin-1-yl)-N-({4-[({4-[2-(2-methoxyethoxy)ethyl]morpholin-2-yl}methyl)amino]-3-nitrophenyl}sulfonyl)-2-(1H-pyrrolo[2,3-b]pyridin-5-yloxy)benzamide] to `CC1(C)CCC(CN2CCN(c3ccc(C(=O)NS(=O)(=O)c4ccc(N[C@H]5CCN(CCF)C5)c([N+](=O)[O-])c4)c(Oc4cnc5[nH]ccc5c4)c3)CC2)=C(c2ccc(Cl)cc2)C1` [Example 181, 4-(4-{[2-(4-chlorophenyl)-4,4-dimethylcyclohex-1-en-1-yl]methyl}piperazin-1-yl)-N-[(4-{[(3S)-1-(2-fluoroethyl)pyrrolidin-3-yl]amino}-3-nitrophenyl)sulfonyl]-2-(1H-pyrrolo[2,3-b]pyridin-5-yloxy)benzamide], the pKi falls from > 11.00 to 10.77. The first binds more tightly here.

First: CC1(C)CCC(CN2CCN(c3ccc(C(=O)NS(=O)(=O)c4ccc(NCC5CCC(C)(C#N)CC5)c([N+](=O)[O-])c4)c(Oc4cnc5[nH]ccc5c4)c3)CC2)=C(c2ccc(Cl)cc2)C1 (centres unmarked) [Example 366, 4-(4-{[2-(4-chlorophenyl)-4,4-dimethylcyclohex-1-en-1-yl]methyl}piperazin-1-yl)-N-[(4-{[(4-cyano-4-methylcyclohexyl)methyl]amino}-3-nitrophenyl)sulfonyl]-2-(1H-pyrrolo[2,3-b]pyridin-5-yloxy)benzamide]
Second: CC1(C)CCC(CN2CCN(c3ccc(C(=O)NS(=O)(=O)c4ccc(N[C@H]5CCN(CC(F)F)C5)c([N+](=O)[O-])c4)c(Oc4cnc5[nH]ccc5c4)c3)CC2)=C(c2ccc(Cl)cc2)C1 [Example 182, 4-(4-{[2-(4-chlorophenyl)-4,4-dimethylcyclohex-1-en-1-yl]methyl}piperazin-1-yl)-N-[(4-{[(3S)-1-(2,2-difluoroethyl)pyrrolidin-3-yl]amino}-3-nitrophenyl)sulfonyl]-2-(1H-pyrrolo[2,3-b]pyridin-5-yloxy)benzamide]
The pKi of the first is 0.45 log units higher: 10.62 for the first, 10.17 for the second.

First: CC1(C)CCC(CN2CCN(c3ccc(C(=O)NS(=O)(=O)c4cnc5c(c4)nnn5CC4CCOCC4)c(Oc4cnc5[nH]ccc5c4)c3)CC2)=C(c2ccc(Cl)cc2)C1 [Example 370, 4-(4-{[2-(4-chlorophenyl)-4,4-dimethylcyclohex-1-en-1-yl]methyl}piperazin-1-yl)-2-(1H-pyrrolo[2,3-b]pyridin-5-yloxy)-N-{[3-(tetrahydro-2H-pyran-4-ylmethyl)-3H-[1,2,3]triazolo[4,5-b]pyridin-6-yl]sulfonyl}benzamide]
Second: CCN(C)C(=O)N1CCO[C@H](COc2ncc(S(=O)(=O)NC(=O)c3ccc(N4CCN(CC5=C(c6ccc(Cl)cc6)CC(C)(C)CC5)CC4)cc3Oc3cnc4[nH]ccc4c3)cc2Cl)C1 [Example 334, (2S)-2-{[(3-chloro-5-{[4-(4-{[2-(4-chlorophenyl)-4,4-dimethylcyclohex-1-en-1-yl]methyl}piperazin-1-yl)-2-(1H-pyrrolo[2,3-b]pyridin-5-yloxy)benzoyl]sulfamoyl}pyridin-2-yl)oxy]methyl}-N-ethyl-N-methylmorpholine-4-carboxamide]
The pKi of the first is 0.31 log units higher: 9.55 for the first, 9.24 for the second.

Compared with `CC1(C)CCC(CN2CCN(c3ccc(C(=O)NS(=O)(=O)c4ccc(OCC5(F)CCN(C6COC6)CC5)c(Cl)c4)c(Oc4cnc5[nH]ccc5c4)c3)CC2)=C(c2ccc(Cl)cc2)C1` [Example 322, N-[(3-chloro-4-{[4-fluoro-1-(oxetan-3-yl)piperidin-4-yl]methoxy}phenyl)sulfonyl]-4-(4-{[2-(4-chlorophenyl)-4,4-dimethylcyclohex-1-en-1-yl]methyl}piperazin-1-yl)-2-(1H-pyrrolo[2,3-b]pyridin-5-yloxy)benzamide], `CC1(C)CCC(CN2CCN(c3ccc(C(=O)NS(=O)(=O)c4cnc(OCC5(F)CCN(CC#N)CC5)c(Cl)c4)c(Oc4cnc5[nH]ccc5c4)c3)CC2)=C(c2ccc(Cl)cc2)C1` [Example 257, N-[(5-chloro-6-{[1-(cyanomethyl)-4-fluoropiperidin-4-yl]methoxy}pyridin-3-yl)sulfonyl]-4-(4-{[2-(4-chlorophenyl)-4,4-dimethylcyclohex-1-en-1-yl]methyl}piperazin-1-yl)-2-(1H-pyrrolo[2,3-b]pyridin-5-yloxy)benzamide] is lower in pKi: > 11.00 for the first, 10.28 for the second.

Compared with `CC1(C)CCC(CN2CCN(c3ccc(C(=O)NS(=O)(=O)c4ccc(NC5CCN([C@H]6CCOC[C@H]6F)CC5)c([N+](=O)[O-])c4)c(Oc4cnc5[nH]ccc5c4)c3)CC2)=C(c2ccc(Cl)cc2)C1` (relative stereo) [Example 115, 4-(4-{[2-(4-chlorophenyl)-4,4-dimethylcyclohex-1-en-1-yl]methyl}piperazin-1-yl)-N-{[4-({1-[cis-3-fluorotetrahydro-2H-pyran-4-yl]piperidin-4-yl}amino)-3-nitrophenyl]sulfonyl}-2-(1H-pyrrolo[2,3-b]pyridin-5-yloxy)benzamide], `CC1(C)CCC(CN2CCN(c3ccc(C(=O)NS(=O)(=O)c4ccc(NC5CCN(CC(F)(F)F)CC5)c([N+](=O)[O-])c4)c(Oc4cnc5[nH]ccc5c4)c3)CC2)=C(c2ccc(Cl)cc2)C1` [Example 83, 4-(4-{[2-(4-chlorophenyl)-4,4-dimethylcyclohex-1-en-1-yl]methyl}piperazin-1-yl)-N-[(3-nitro-4-{[1-(2,2,2-trifluoroethyl)piperidin-4-yl]amino}phenyl)sulfonyl]-2-(1H-pyrrolo[2,3-b]pyridin-5-yloxy)benzamide] is lower in pKi: > 11.00 for the first, 10.15 for the second.

`CC1(C)CC(c2ccc(Cl)cc2)=C(CN2CCN(c3ccc(C(=O)NS(=O)(=O)c4ccc(N[C@H]5CC[C@@H](N6CCOCC6)CC5)c([N+](=O)[O-])c4)c(Oc4cnc5[nH]ccc5c4)c3)CC2)CO1` [Example 63, Cis-4-(4-{[4-(4-chlorophenyl)-6,6-dimethyl-5,6-dihydro-2H-pyran-3-yl]methyl}piperazin-1-yl)-N-({4-[(4-morpholin-4-ylcyclohexyl)amino]-3-nitrophenyl}sulfonyl)-2-(1H-pyrrolo[2,3-b]pyridin-5-yloxy)benzamide] and `CC1(C)CCC(CN2CCN(c3ccc(C(=O)NS(=O)(=O)c4ccc(N[C@H]5CC[C@H](N(CC6CC6)CC6CC6)CC5)c([N+](=O)[O-])c4)c(Oc4cnc5[nH]ccc5c4)c3)CC2)=C(c2ccc(Cl)cc2)C1` [Example 64, Trans-N-{[4-({4-[bis(cyclopropylmethyl)amino]cyclohexyl}amino)-3-nitrophenyl]sulfonyl}-4-(4-{[2-(4-chlorophenyl)-4,4-dimethylcyclohex-1-en-1-yl]methyl}piperazin-1-yl)-2-(1H-pyrrolo[2,3-b]pyridin-5-yloxy)benzamide] cannot be ordered by pKi: > 11.00 for the first, > 11.00 for the second.

`O=C(NS(=O)(=O)c1ccc(NCC2CCOCC2)c([N+](=O)[O-])c1)c1ccc(N2CCN(CC3=C(c4ccc(Cl)cc4)CCC4(CCN(C(CF)CF)CC4)C3)CC2)cc1Oc1cnc2[nH]ccc2c1` [Example 265, 4-(4-{[9-(4-chlorophenyl)-3-(1,3-difluoropropan-2-yl)-3-azaspiro[5.5]undec-8-en-8-yl]methyl}piperazin-1-yl)-N-({3-nitro-4-[(tetrahydro-2H-pyran-4-ylmethyl)amino]phenyl}sulfonyl)-2-(1H-pyrrolo[2,3-b]pyridin-5-yloxy)benzamide] and `CC1(C)CCC(CN2CCN(c3ccc(C(=O)NS(=O)(=O)c4ccc(NCc5ccc(OCCN6CCOCC6)cc5)c([N+](=O)[O-])c4)c(Oc4cnc5[nH]ccc5c4)c3)CC2)=C(c2ccc(Cl)cc2)C1` [Example 198, 4-(4-{[2-(4-chlorophenyl)-4,4-dimethylcyclohex-1-en-1-yl]methyl}piperazin-1-yl)-N-[(4-{[4-(2-morpholin-4-ylethoxy)benzyl]amino}-3-nitrophenyl)sulfonyl]-2-(1H-pyrrolo[2,3-b]pyridin-5-yloxy)benzamide] cannot be ordered by pKi: > 11.00 for the first, > 11.00 for the second.

Same assay, conditions: Table 4, selected compounds of Ser. No. 12/631,404; read-out: Bcl-2 FRET Ki

With `COCCNc1ccc(S(=O)(=O)NC(=O)c2ccc(N3CCN(CC4=C(c5ccc(Cl)cc5)CC(C)(C)CC4)CC3)cc2Oc2ccc3[nH]ccc3c2)cc1[N+](=O)[O-]` [Example 20, 4-(4-{[2-(4-chlorophenyl)-4,4-dimethylcyclohex-1-en-1-yl]methyl}piperazin-1-yl)-2-(1H-indol-5-yloxy)-N-({4-[(2-methoxyethyl)amino]-3-nitrophenyl}sulfonyl)benzamide] the pKi was 9.74.

Same assay, conditions: Table 5, direct comparison Z=N vs Z=C analogs; read-out: Bcl-2 FRET ki

`COCCNc1ccc(S(=O)(=O)NC(=O)c2ccc(N3CCN(CC4=C(c5ccc(Cl)cc5)CC(C)(C)CC4)CC3)cc2Oc2ccc3[nH]ccc3c2)cc1[N+](=O)[O-]` [Example 20, 4-(4-{[2-(4-chlorophenyl)-4,4-dimethylcyclohex-1-en-1-yl]methyl}piperazin-1-yl)-2-(1H-indol-5-yloxy)-N-({4-[(2-methoxyethyl)amino]-3-nitrophenyl}sulfonyl)benzamide] showed a pKi of 9.74.
